The text below walks through data of PMC9104013, “Role of Polyamine-Induced Dimerization of Antizyme in Its Cellular Functions” (International Journal of Molecular Sciences, 2022).

The subject of one assay is hair follicle cycle. More on the design: method as in PMID 19956989. Particulars: mice; cited from earlier work.
For assay [1], the system named is polyamine uptake in OAZ1-overexpressing DU145 cells. Briefly: [14C]-Put and -Spd uptake in OAZ1-overexpressing DU145 cells. The settings on record: DFMO 5 mM 3 days, DOX 1 μg/mL 2 days, analogue 100 μM 4 h with APCHA 50 μM, AG 1 mM; 20 min uptake. Format: cell-based. Here is the method:
OAZ1-overexpressing DU145 cells were plated onto 6-well plates and incubated overnight. The cells were first treated with DFMO (5 mM) for 3 days, after which DOX (1 μg/mL) was added for further 2 days to induce OAZ1 overexpression. Then, AG (1 mM), APCHA (50 μM), and Spd/analogue (100 μM) were added for 4 h. The plates were washed with warm DMEM and incubated for 20 min in [^14C]-Put or [^14C]-Spd labeling mix (10 μM Put/Spd, specific activity 25 mCi/mmol, in DMEM). The plates were washed twice with ice-cold PBS and lysed to 0.5 mL of 0.1 M NaOH. An aliquot was taken for measurement of ^14C radioactivity, and the counts were normalized to total protein in the sample.

The target in assay [2] is T1, ODC (Homo sapiens, UniProt P11926).
T1 construct: ODC-enriched lysate was prepared from subconfluent DU145 cells 6 h after medium change; endogenous in cells; host or cells: DU145 cells (cytosolic extract)
T1 sequence (P11926 1-461): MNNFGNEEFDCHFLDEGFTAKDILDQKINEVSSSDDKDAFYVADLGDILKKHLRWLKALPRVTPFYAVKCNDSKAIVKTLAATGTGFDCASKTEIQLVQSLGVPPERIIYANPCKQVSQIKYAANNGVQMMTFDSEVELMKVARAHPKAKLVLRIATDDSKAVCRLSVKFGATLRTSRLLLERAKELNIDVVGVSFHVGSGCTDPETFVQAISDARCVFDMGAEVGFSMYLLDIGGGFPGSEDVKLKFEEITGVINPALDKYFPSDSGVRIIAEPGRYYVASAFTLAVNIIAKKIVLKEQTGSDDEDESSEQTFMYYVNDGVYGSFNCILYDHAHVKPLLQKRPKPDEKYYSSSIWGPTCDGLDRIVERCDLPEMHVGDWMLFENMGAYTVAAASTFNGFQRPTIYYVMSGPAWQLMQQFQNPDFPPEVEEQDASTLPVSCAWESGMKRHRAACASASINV
Briefly: In vitro effect of Spd and its analogues on ODC activity in cytosolic extract. Format: biochemical. Particulars: 1 mM, ODC-enriched DU145 cell sample, 30 min, +37 °C. The method, then:
(§1) ODC-enriched lysate was prepared from subconfluent DU145 cells 6 h after medium change by lysing the cells in buffer containing 25 mM Tris-HCl, pH 7.4, 1 mM DTT, and 0.01% Tween-80. OAZ1-enriched lysate was prepared from OAZ1-overexpressing DU145 cells in the same buffer. The lysate was cleared by centrifugation, and the endogenous polyamines were removed by ultrafiltration through 3K-cutoff filter and washing twice with lysis buffer. In experiment 1, ODC-enriched cytoplasmic extract (~100 μg of total protein) was incubated for 30 min at +37 °C in the presence of 1 mM Spd or analogues before ODC activity assay. In experiment 2, ODC-enriched cytoplasmic extract (~100 μg of total protein) was incubated for 30 min at +37 °C with OAZ1-enriched cytoplasmic extract (~100 μg of total protein) in the presence of 1 mM Spd or analogues before ODC activity assay.

Assay [3] concerns ODC. Described as above. Format: biochemical. The settings on record: 1 mM, ODC-enriched extract plus extract from OAZ1-overexpressing cells. Here is the method:
as §1

As to `CC(N)CCNCCCCN` (centres unmarked) [1-MeSpd], in the assay with hair follicle cycle, the Hair follicle cycle result is reported as “activate the hair follicle cycle”. In the case of `CC(CN)CNCCCCN` (centres unmarked) [2-MeSpd], in assay [1], the “Downregulation of [^14C]-Put uptake” value was “weakest downregulation” and the “Downregulation of [^14C]-Spd uptake” value is listed as “weakest downregulation”. In the case of `NCCCCNCCCN` [Spd, spermidine], the “Effect of direct addition on ODC activity in vitro” value at ODC [2] is on record as “did not affect ODC activity”. In addition, in the assay with ODC [3], the “Effect on the ability of OAZ1 to inhibit ODC activity in vitro” value is recorded as “did not affect the ability of OAZ1 to inhibit ODC activity”.
